Results taken from PubChem BioAssay (NCI).
Values joined by “and” are separate entries in the source; they are usually repeats but may differ in a detail not shown here. Identical values can stand only once.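 Each compound was tested at five concentrations against cells in 96-well plates for 48 hours. GI50: concentration for 50% inhibition of growth. TGI is the concentration that stops growth completely.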

Key:
Experiment in all cases: NCI-60 cell line screen, 48 h
RXF 393 renal = tested on: RXF 393 renal
MALME-3M melanoma = tested on: MALME-3M melanoma
SNB-19 CNS = tested on: SNB-19 CNS
SNB-75 CNS = tested on: SNB-75 CNS
KM12 colon = tested on: KM12 colon
RPMI-8226 leukemia = tested on: RPMI-8226 leukemia
U251 CNS = tested on: U251 CNS
UO-31 renal = tested on: UO-31 renal
LOX IMVI melanoma = tested on: LOX IMVI melanoma
ACHN renal = tested on: ACHN renal

Work on `N/C(=N\NS(=O)(=O)c1ccccc1)Oc1ccc(Cl)cc1` yielded a TGI (RXF 393 renal) of 58.1 µM, a TGI (MALME-3M melanoma) greater than 100 µM and a TGI (SNB-19 CNS) greater than 100 µM. For the same compound, the TGI (SNB-75 CNS) was greater than 100 µM, the TGI (KM12 colon) was greater than 100 µM and the TGI (RPMI-8226 leukemia) was greater than 100 µM. For the same compound, the TGI (U251 CNS) was greater than 100 µM, the TGI (UO-31 renal) was greater than 100 µM and the TGI (LOX IMVI melanoma) was greater than 100 µM. For the same compound, the TGI (ACHN renal) was greater than 100 µM.
Compound `Nc1ccc(-c2nc3ccc4[nH]ncc4c3c3c2CCCC3)cc1F` has a GI50 (RXF 393 renal) of 0.36 µM, a TGI (RXF 393 renal) of 2 µM and a GI50 (MALME-3M melanoma) of 1.74 µM. For the same compound, the TGI (MALME-3M melanoma) was 6.98 µM, the GI50 (SNB-19 CNS) was 2.48 µM and the TGI (SNB-19 CNS) was 32.1 µM. The GI50 (SNB-75 CNS) was 1.35 µM, the TGI (SNB-75 CNS) was 3.42 µM and the GI50 (KM12 colon) was 1.11 µM. The TGI (KM12 colon) was 6.3 µM, the GI50 (RPMI-8226 leukemia) was 0.842 µM and the TGI (RPMI-8226 leukemia) was 7.37 µM. It also gave a GI50 (U251 CNS) of 1.29 µM, a TGI (U251 CNS) of 8.95 µM and a GI50 (UO-31 renal) of 1.01 µM. The TGI (UO-31 renal) was 5.53 µM, the GI50 (LOX IMVI melanoma) was 2 µM and the TGI (LOX IMVI melanoma) was 7.8 µM. For the same compound, the GI50 (ACHN renal) was 0.316 µM and the TGI (ACHN renal) was 15.5 µM.
For `O=C1NC(=O)/C(=C/C=C/c2ccccc2)S1`, the GI50 (RXF 393 renal) was 4.95 µM, the TGI (RXF 393 renal) was 27.8 µM and the GI50 (MALME-3M melanoma) was 12.3 µM. It also gave a TGI (MALME-3M melanoma) greater than 82.4 µM, a GI50 (SNB-19 CNS) of 1.42 µM and a TGI (SNB-19 CNS) of 20.3 µM. The GI50 (SNB-75 CNS) was 5.25 µM, the TGI (SNB-75 CNS) was 40.3 µM and the GI50 (KM12 colon) was 8.25 µM. The TGI (KM12 colon) was 21.8 µM, the GI50 (RPMI-8226 leukemia) was 3.67 µM and the TGI (RPMI-8226 leukemia) was greater than 96.5 µM. The GI50 (U251 CNS) was 0.693 µM, the TGI (U251 CNS) was 18.1 µM and the GI50 (UO-31 renal) was 2.81 µM. For the same compound, the TGI (UO-31 renal) was 30.4 µM, the GI50 (LOX IMVI melanoma) was 0.999 µM and the TGI (LOX IMVI melanoma) was 14.7 µM. It also gave a GI50 (ACHN renal) of 0.655 µM and a TGI (ACHN renal) greater than 37 µM.
With `COc1ccc(SC2c3cc(OC)c(OC)cc3Oc3nc(N)c(C#N)c(N)c32)cc1` (stereo not given) the GI50 (RXF 393 renal) was 0.74 µM, the TGI (RXF 393 renal) was 2.01 µM and the GI50 (MALME-3M melanoma) was 1.46 µM. It also gave a TGI (MALME-3M melanoma) of 2.89 µM, a GI50 (SNB-19 CNS) of 1.32 µM and a TGI (SNB-19 CNS) of 2.64 µM. The GI50 (SNB-75 CNS) was 1.31 µM, the TGI (SNB-75 CNS) was 2.62 µM and the GI50 (KM12 colon) was 1.53 µM. For the same compound, the TGI (KM12 colon) was 3.05 µM, the GI50 (RPMI-8226 leukemia) was 0.354 µM and the TGI (RPMI-8226 leukemia) was 1.81 µM. For the same compound, the GI50 (U251 CNS) was 0.954 µM, the TGI (U251 CNS) was 2.18 µM and the GI50 (UO-31 renal) was 1.34 µM. The TGI (UO-31 renal) was 2.61 µM, the GI50 (LOX IMVI melanoma) was 0.585 µM and the TGI (LOX IMVI melanoma) was 1.86 µM. The GI50 (ACHN renal) was 1.74 µM and the TGI (ACHN renal) was 3.12 µM.
`CC1(C)N=C(N)N=C(N)N1c1cccc(C#N)c1` showed a GI50 (RXF 393 renal) of 4.33 µM, a TGI (RXF 393 renal) greater than 100 µM and a GI50 (MALME-3M melanoma) of 16.7 µM. The TGI (MALME-3M melanoma) was greater than 100 µM, the GI50 (SNB-19 CNS) was 49.4 µM and the TGI (SNB-19 CNS) was greater than 100 µM. It also gave a GI50 (SNB-75 CNS) of 9.03 µM, a TGI (SNB-75 CNS) greater than 100 µM and a GI50 (KM12 colon) of 7.37 µM. It also gave a TGI (KM12 colon) greater than 100 µM, a GI50 (RPMI-8226 leukemia) of 62.9 µM and a TGI (RPMI-8226 leukemia) greater than 100 µM. The GI50 (U251 CNS) was 0.752 µM, the TGI (U251 CNS) was greater than 100 µM and the GI50 (UO-31 renal) was 5.9 µM. It also gave a TGI (UO-31 renal) greater than 100 µM, a GI50 (LOX IMVI melanoma) of 0.605 µM and a TGI (LOX IMVI melanoma) greater than 100 µM. The GI50 (ACHN renal) was 4.09 µM and the TGI (ACHN renal) was greater than 100 µM.
In the case of `C[C@]12O[C@H](C[C@]1(O)CO)n1c3ccccc3c3c4c(c5c6ccccc6n2c5c31)CNC4=O`, the GI50 (RXF 393 renal) is reported as 0.0385 µM and 0.0189 µM, the TGI (RXF 393 renal) is reported as 0.622 µM and 0.649 µM and the GI50 (MALME-3M melanoma) is reported as 0.0324 µM and 0.0298 µM. The TGI (MALME-3M melanoma) was 1.35 µM and 1.27 µM, the GI50 (SNB-19 CNS) was 0.546 µM and 0.544 µM and the TGI (SNB-19 CNS) was 4.08 µM and 3.22 µM. For the same compound, the GI50 (SNB-75 CNS) was 0.0492 µM and 0.0852 µM, the TGI (SNB-75 CNS) was 0.556 µM and 1.3 µM and the GI50 (KM12 colon) was 0.00535 µM and < 0.01 µM. For the same compound, the TGI (KM12 colon) was 1.4 µM and 0.982 µM, the GI50 (RPMI-8226 leukemia) was 0.134 µM and 0.215 µM and the TGI (RPMI-8226 leukemia) was 1.6 µM and 1.75 µM. The GI50 (U251 CNS) was 0.808 µM and 0.523 µM, the TGI (U251 CNS) was 3.58 µM and 2.95 µM and the GI50 (UO-31 renal) was 0.0238 µM and 0.0286 µM. For the same compound, the TGI (UO-31 renal) was 1.08 µM and 1.29 µM, the GI50 (LOX IMVI melanoma) was 0.0531 µM and 0.13 µM and the TGI (LOX IMVI melanoma) was 1.11 µM and 1.29 µM. For the same compound, the GI50 (ACHN renal) was 0.0222 µM and 0.0168 µM and the TGI (ACHN renal) was > 6.5 µM and 3.13 µM.
